Experimental data published in patent US12391679B2, “Benzamide-substituted bicyclic imidazo- and pyrazolo-fused -pyridine, -pyrimide, and -pyridazine compounds for treatment of inflammatory diseases” (ONCO3R Therapeutics BV, priority 2019, dated 2025).

Tested on: LPS-induced TNFα in monocyte-derived macrophages
Assay: MdM assay: LPS-triggered TNFα (ELISA)
Assay type: cell-based, human
Conditions: Homo sapiens, Macrophage, 20 h, read-out: TNFα EC50 (nM)
Procedure, shortened: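 TNFα secretion quantified by streptavidin-HRP/luminol sandwich ELISA in supernatants collected 20 h after LPS (200 ng/mL). Macrophages derived from magnetically isolated human CD14+ monocytes were used at day 10, with compound added 1 h before LPS; final DMSO 0.2%.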

Row | SMILES | EC50 [nM]
1 | COc1cc(-c2cnn3cc(C(C)(C)C#N)ccc23)cc(OC(F)F)c1C(=O)N[C@@H]1C[C@@H]1F [Cpd 219, 4-[6-(1-cyano-1-methyl-ethyl)pyrazolo[1,5-a]pyridin-3-yl]-2-(difluoromethoxy)-N-[(1R,2S)-2-fluorocyclopropyl]-6-methoxy-benzamide] | 100 to 1000
2 | [2H]C([2H])([2H])C(C#N)(c1ccc2c(-c3cc(OC)c(C(=O)N[C@@H]4C[C@@H]4F)c(OC(F)F)c3)cnn2c1)C([2H])([2H])[2H] [Cpd 275, 4-[6-[1-cyano-2,2,2-trideuterio-1-(trideuteriomethyl)ethyl]pyrazolo[1,5-a]pyridin-3-yl]-2-(difluoromethoxy)-N-[(1R,2S)-2-fluorocyclopropyl]-6-methoxy-benzamide] | 100 to 1000

Same assay, conditions: Macrophage; human MdM; LPS 200 ng/mL; supernatant after 20 h; inhibition of TNFα; read-out: TNFα EC50

Row | SMILES | EC50 [nM]
3 | COc1cc(-c2cnn3cc(C4COC4)ccc23)cc(OC(F)F)c1C(=O)N[C@@H]1C[C@@H]1F [Cpd 218, 2-(difluoromethoxy)-N-[(1R,2S)-2-fluorocyclopropyl]-6-methoxy-4-[6-(oxetan-3-yl)pyrazolo[1,5-a]pyridin-3-yl]benzamide] | 100 to 1000
4 | COc1cc(-c2cnc3cc(C4(F)COC4)ccn23)cc(OC(F)F)c1C(=O)N[C@@H]1C[C@@H]1F [Cpd 224, 2-(difluoromethoxy)-N-[(1R,2S)-2-fluorocyclopropyl]-4-[7-(3-fluorooxetan-3-yl)imidazo[1,2-a]pyridin-3-yl]-6-methoxy-benzamide] | 100 to 1000
5 | COc1cc(-c2cnn3cc(C(C)(C)O)ccc23)cc(OC(F)F)c1C(=O)N[C@@H]1C[C@@H]1F [Cpd 227, 2-(difluoromethoxy)-N-[(1R,2S)-2-fluorocyclopropyl]-4-[6-(1-hydroxy-1-methyl-ethyl)pyrazolo[1,5-a]pyridin-3-yl]-6-methoxy-benzamide] | 100 to 1000
6 | COc1cc(-c2cnc3cc(C(C)(C)C#N)cnn23)cc(OC(F)F)c1C(=O)N[C@@H]1C[C@@H]1F [Cpd 228, 4-[7-(1-cyano-1-methyl-ethyl)imidazo[1,2-b]pyridazin-3-yl]-2-(difluoromethoxy)-N-[(1R,2S)-2-fluorocyclopropyl]-6-methoxy-benzamide] | 100 to 1000
7 | COc1cc(-c2cnn3cc(C(C)(C)C#N)cnc23)cc(OC(F)F)c1C(=O)N[C@@H]1C[C@@H]1F [Cpd 231, 4-[6-(1-cyano-1-methyl-ethyl)pyrazolo[1,5-a]pyrimidin-3-yl]-2-(difluoromethoxy)-N-[(1R,2S)-2-fluorocyclopropyl]-6-methoxy-benzamide] | 100 to 1000
8 | COc1cc(-c2cnn3cc(C4COCCO4)ccc23)cc(OC(F)F)c1C(=O)NC1CC1 (centres unmarked) [Cpd 232, N-cyclopropyl-2-(difluoromethoxy)-4-[6-(1,4-dioxan-2-yl)pyrazolo[1,5-a]pyridin-3-yl]-6-methoxy-benzamide] | 100 to 1000
9 | COc1cc(-c2cnn3cc(C4(C#N)CC4)ccc23)cc(OC(F)F)c1C(=O)N[C@@H]1C[C@@H]1F [Cpd 235, 4-[6-(1-cyanocyclopropyl)pyrazolo[1,5-a]pyridin-3-yl]-2-(difluoromethoxy)-N-[(1R,2S)-2-fluorocyclopropyl]-6-methoxy-benzamide] | 100 to 1000
10 | COc1cc(-c2cnn3cc(C(C)(C)CO)ccc23)cc(OC(F)F)c1C(=O)NC1CC1 [Cpd 236, N-cyclopropyl-2-(difluoromethoxy)-4-[6-(2-hydroxy-1,1-dimethyl-ethyl)pyrazolo[1,5-a]pyridin-3-yl]-6-methoxy-benzamide] | 100 to 1000
11 | COc1cc(-c2cnn3cc(C4(C#N)CCOCC4)ccc23)cc(OC(F)F)c1C(=O)NC1CC1 [Cpd 237, 4-[6-(4-cyanotetrahydropyran-4-yl)pyrazolo[1,5-a]pyridin-3-yl]-N-cyclopropyl-2-(difluoromethoxy)-6-methoxy-benzamide] | 1000 to 5000
12 | COc1cc(-c2cnn3cc(C(C)(C)CO)ccc23)cc(OC(F)F)c1C(=O)N[C@@H]1C[C@@H]1F [Cpd 242, 2-(difluoromethoxy)-N-[(1R,2S)-2-fluorocyclopropyl]-4-[6-(2-hydroxy-1,1-dimethyl-ethyl)pyrazolo[1,5-a]pyridin-3-yl]-6-methoxy-benzamide] | 100 to 1000
13 | COc1cc(-c2cnn3cc(C4(C#N)CCOCC4)ccc23)cc(OC(F)F)c1C(=O)N[C@@H]1C[C@@H]1F [Cpd 243, 4-[6-(4-cyanotetrahydropyran-4-yl)pyrazolo[1,5-a]pyridin-3-yl]-2-(difluoromethoxy)-N-[(1R,2S)-2-fluorocyclopropyl]-6-methoxy-benzamide] | 100 to 1000
14 | COc1cc(-c2cnn3cc(C(C)(C)C#N)ccc23)cc(OC)c1C(=O)N[C@@H]1C[C@@H]1F [Cpd 245, 4-[6-(1-cyano-1-methyl-ethyl)pyrazolo[1,5-a]pyridin-3-yl]-N-[(1R,2S)-2-fluorocyclopropyl]-2,6-dimethoxy-benzamide] | 100 to 1000
15 | COc1cc(-c2cnn3cc(C4(C(N)=O)CCC4)ccc23)cc(OC(F)F)c1C(=O)N[C@@H]1C[C@@H]1F [Cpd 254, 4-[6-(1-carbamoylcyclobutyl)pyrazolo[1,5-a]pyridin-3-yl]-2-(difluoromethoxy)-N-[(1R,2S)-2-fluorocyclopropyl]-6-methoxy-benzamide] | 1000 to 5000
16 | COc1cc(-c2cnn3cc(C(C)(C)N)ccc23)cc(OC(F)F)c1C(=O)N[C@@H]1C[C@@H]1F [Cpd 256, 4-[6-(1-amino-1-methyl-ethyl)pyrazolo[1,5-a]pyridin-3-yl]-2-(difluoromethoxy)-N-[(1R,2S)-2-fluorocyclopropyl]-6-methoxy-benzamide] | 1000 to 5000
17 | COc1cc(-c2cnn3cc(C4(N)CCC4)ccc23)cc(OC(F)F)c1C(=O)N[C@@H]1C[C@@H]1F [Cpd 261, 4-[6-(1-aminocyclobutyl)pyrazolo[1,5-a]pyridin-3-yl]-2-(difluoromethoxy)-N-[(1R,2S)-2-fluorocyclopropyl]-6-methoxy-benzamide] | 1000 to 5000
18 | COc1cc(-c2cnn3cc(C4(O)CCC4)ccc23)cc(OC(F)F)c1C(=O)N[C@@H]1C[C@@H]1F [Cpd 266, 2-(difluoromethoxy)-N-[(1R,2S)-2-fluorocyclopropyl]-4-[6-(1-hydroxycyclobutyl)pyrazolo[1,5-a]pyridin-3-yl]-6-methoxy-benzamide] | 100 to 1000
19 | COc1cc(-c2cnn3cc(C(C)(C)COS(C)(=O)=O)ccc23)cc(OC(F)F)c1C(=O)N[C@@H]1C[C@@H]1F [Cpd 267, [2-[3-[3-(difluoromethoxy)-4-[[(1R,2S)-2-fluorocyclopropyl]carbamoyl]-5-methoxy-phenyl]pyrazolo[1,5-a]pyridin-6-yl]-2-methyl-propyl]methanesulfonate] | 100 to 1000
20 | COc1cc(-c2cnn3cc(C(C)(C)CN4CCOCC4)ccc23)cc(OC(F)F)c1C(=O)N[C@@H]1C[C@@H]1F [Cpd 269, 2-(difluoromethoxy)-4-[6-(1,1-dimethyl-2-morpholino-ethyl)pyrazolo[1,5-a]pyridin-3-yl]-N-[(1R,2S)-2-fluorocyclopropyl]-6-methoxy-benzamide] | 100 to 1000
